Data as given in patent EP0950398A2, “Use of esters as dispersants or solvents in sunscreens and solar protection pigments” (Henkel Kommanditgesellschaft auf Aktien, priority 1998, dated 1999).

Test: UV absorption of 5 ppm Octylmethoxy Cinnamate dissolved in different oil bodies (absorption increase)
Type: physicochemical
Settings: for Absorptionssteigerung: 5 ppm Octylmethoxy Cinnamate in the oil body, 1-cm cuvette, 308 nm, absorption in Mineralöl taken as 100 %
From the text: Zur Bestimmung der Absorptionssteigerung wurden Lösungen von 5 ppm Octylmethoxy Cinnamate in verschiedenen Ölkörpern hergestellt und die UV-Absorption in einer 1-cm Küvette bei einer Wellenlänge von 308 nm bestimmt. Die Absorption in Mineralöl wurde dazu als 100 % angenommen und alle übrigen Absorptionen dazu ins Verhältnis gesetzt. Des weiteren wurden verschiedene UV-Filter (OT = Octyl Triazone; BMDBM = Butyl Methoxydibenzoylmethane; B3 = Benzophenone-3 und 4MBC = 4-Methylbenzyliden Camphor) in den Ölkörpern in der Wärme gelöst und die Löslichkeit bei 15°C bestimmt. Die Ergebnisse sind in Tabelle 1 zusammengefaßt. Tabelle 1

SMILES | Absorptionssteigerung [%] | UV-Absorption unterstützt (result in words, comparison of all tested oil bodies)
CCCCOC(=O)CCCCC(=O)OCCCC [Dibutyl Adipate] | 117 | am stärksten
CCCCCCCCOCCCCCCCC [Dicaprylyl Ether, reference compound] | 105 | –
